pIC50: −log10 of the molar value.
Columns and labels:
[1] = Inhibition of PKA
[2] = target: T1, Rho-associated protein kinase 2 (Homo sapiens, UniProt O75116); experiment: Inhibition of ROCK2
[3] = Selectivity for ROCK2 over PKA
[4] = target: T1, Rho-associated protein kinase 2
Description: Inhibition of ROCK2 assessed as myosin light chain phosphorylation by cell-based assay

[5] = Inhibition of p38
[6] = target: Serine/threonine-protein kinase MRCK alpha (Homo sapiens, UniProt Q5VT25); experiment: Inhibition of MRCKalpha
[7] = Metabolic stability in human liver microsomes assessed as half life; assay type: ADME, Microsome
[8] = target: Rho-associated protein kinase 1 (Homo sapiens, UniProt Q13464); experiment: Inhibition of ROCK1
Sequence of Rho-associated protein kinase 1 (Q13464 whole entry): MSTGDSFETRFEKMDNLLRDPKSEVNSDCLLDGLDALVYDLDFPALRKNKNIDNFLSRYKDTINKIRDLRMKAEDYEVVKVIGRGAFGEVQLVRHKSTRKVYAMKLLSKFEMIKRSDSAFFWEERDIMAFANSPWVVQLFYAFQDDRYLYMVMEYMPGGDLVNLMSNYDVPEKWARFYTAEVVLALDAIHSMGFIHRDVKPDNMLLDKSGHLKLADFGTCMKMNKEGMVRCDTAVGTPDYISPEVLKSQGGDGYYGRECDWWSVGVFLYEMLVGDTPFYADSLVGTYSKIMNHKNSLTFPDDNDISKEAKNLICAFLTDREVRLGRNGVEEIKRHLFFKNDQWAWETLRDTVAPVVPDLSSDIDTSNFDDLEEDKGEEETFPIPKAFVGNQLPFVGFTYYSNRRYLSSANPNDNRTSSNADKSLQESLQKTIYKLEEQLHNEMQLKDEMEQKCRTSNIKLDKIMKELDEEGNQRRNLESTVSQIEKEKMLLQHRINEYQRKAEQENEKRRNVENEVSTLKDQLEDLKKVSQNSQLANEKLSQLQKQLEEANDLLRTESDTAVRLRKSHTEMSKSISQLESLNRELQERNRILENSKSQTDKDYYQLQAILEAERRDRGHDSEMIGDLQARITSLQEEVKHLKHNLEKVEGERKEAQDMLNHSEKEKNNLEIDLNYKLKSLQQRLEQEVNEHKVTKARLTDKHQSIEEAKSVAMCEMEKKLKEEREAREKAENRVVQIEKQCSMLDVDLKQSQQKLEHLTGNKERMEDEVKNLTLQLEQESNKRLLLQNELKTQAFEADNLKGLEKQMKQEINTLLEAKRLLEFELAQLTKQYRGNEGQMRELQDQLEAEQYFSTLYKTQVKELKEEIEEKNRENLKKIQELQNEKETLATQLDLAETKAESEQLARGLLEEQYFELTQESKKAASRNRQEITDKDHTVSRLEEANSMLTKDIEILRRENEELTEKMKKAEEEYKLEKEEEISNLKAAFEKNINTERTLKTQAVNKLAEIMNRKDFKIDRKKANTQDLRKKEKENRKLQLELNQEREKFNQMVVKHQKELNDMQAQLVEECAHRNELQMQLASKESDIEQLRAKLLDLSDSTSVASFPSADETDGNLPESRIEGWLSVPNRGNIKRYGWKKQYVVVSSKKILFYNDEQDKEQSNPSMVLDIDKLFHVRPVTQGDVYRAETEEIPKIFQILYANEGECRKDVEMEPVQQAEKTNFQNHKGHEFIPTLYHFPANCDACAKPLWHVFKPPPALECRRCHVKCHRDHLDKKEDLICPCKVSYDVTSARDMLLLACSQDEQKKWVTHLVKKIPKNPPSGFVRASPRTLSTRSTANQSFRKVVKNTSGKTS

[9] = target: Mitogen-activated protein kinase 10 (Homo sapiens, UniProt P53779); experiment: Inhibition of JNK3
Sequence of Mitogen-activated protein kinase 10 (P53779 whole entry): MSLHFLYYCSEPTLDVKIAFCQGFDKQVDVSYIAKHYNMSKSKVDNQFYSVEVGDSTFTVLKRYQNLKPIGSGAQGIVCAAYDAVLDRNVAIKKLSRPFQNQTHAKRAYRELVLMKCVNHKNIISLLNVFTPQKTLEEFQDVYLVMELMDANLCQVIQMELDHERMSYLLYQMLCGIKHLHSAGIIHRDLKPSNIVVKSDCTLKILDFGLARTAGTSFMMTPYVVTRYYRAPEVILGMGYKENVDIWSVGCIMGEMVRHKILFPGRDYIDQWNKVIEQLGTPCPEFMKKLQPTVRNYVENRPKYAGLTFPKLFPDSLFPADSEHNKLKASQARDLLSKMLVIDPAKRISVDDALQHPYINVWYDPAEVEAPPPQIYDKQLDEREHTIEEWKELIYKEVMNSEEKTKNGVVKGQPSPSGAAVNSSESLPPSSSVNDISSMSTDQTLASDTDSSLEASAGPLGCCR

[10] = Oral bioavailability in rat; assay type: ADME, organism-based; conditions: in vivo
[11] = Clearance in rat; assay type: ADME, organism-based; conditions: in vivo
[12] = Metabolic stability in rat liver microsomes assessed as half life; assay type: ADME, Microsome

T1 sequence (O75116 whole entry): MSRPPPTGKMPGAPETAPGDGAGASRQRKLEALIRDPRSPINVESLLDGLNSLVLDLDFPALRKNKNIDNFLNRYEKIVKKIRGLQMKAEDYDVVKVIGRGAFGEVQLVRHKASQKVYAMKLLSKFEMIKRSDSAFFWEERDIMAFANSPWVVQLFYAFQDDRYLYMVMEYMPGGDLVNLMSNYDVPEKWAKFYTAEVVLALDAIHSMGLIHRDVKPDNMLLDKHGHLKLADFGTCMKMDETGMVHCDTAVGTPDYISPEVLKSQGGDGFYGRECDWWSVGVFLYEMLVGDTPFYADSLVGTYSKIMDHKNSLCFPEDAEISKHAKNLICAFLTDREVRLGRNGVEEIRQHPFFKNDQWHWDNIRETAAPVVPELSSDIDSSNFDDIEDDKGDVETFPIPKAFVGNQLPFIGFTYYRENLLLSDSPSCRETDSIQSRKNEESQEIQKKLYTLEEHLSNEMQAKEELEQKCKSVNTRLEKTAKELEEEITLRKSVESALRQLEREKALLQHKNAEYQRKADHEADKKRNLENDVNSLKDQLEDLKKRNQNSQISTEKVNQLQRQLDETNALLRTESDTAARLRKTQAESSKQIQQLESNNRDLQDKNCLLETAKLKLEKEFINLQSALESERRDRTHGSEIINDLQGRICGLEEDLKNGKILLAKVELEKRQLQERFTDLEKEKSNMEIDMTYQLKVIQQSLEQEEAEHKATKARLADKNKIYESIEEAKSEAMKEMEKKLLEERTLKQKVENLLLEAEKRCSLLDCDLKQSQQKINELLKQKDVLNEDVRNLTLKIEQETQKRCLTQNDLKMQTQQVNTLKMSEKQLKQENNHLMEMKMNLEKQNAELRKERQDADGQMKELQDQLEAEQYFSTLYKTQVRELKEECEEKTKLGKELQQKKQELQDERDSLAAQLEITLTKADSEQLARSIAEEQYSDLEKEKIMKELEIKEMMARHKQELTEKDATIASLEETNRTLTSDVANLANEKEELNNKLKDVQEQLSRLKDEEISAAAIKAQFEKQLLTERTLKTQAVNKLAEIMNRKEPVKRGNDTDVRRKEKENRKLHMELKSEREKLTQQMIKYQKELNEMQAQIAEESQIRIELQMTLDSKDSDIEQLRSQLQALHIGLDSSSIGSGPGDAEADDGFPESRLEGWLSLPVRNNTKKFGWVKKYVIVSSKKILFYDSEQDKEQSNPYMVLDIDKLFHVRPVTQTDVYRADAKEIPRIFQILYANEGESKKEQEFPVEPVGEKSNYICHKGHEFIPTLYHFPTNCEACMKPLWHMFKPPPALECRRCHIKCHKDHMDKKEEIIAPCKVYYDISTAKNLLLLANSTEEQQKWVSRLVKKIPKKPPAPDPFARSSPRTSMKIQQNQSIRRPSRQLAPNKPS
Sequence of Serine/threonine-protein kinase MRCK alpha (Q5VT25 whole entry): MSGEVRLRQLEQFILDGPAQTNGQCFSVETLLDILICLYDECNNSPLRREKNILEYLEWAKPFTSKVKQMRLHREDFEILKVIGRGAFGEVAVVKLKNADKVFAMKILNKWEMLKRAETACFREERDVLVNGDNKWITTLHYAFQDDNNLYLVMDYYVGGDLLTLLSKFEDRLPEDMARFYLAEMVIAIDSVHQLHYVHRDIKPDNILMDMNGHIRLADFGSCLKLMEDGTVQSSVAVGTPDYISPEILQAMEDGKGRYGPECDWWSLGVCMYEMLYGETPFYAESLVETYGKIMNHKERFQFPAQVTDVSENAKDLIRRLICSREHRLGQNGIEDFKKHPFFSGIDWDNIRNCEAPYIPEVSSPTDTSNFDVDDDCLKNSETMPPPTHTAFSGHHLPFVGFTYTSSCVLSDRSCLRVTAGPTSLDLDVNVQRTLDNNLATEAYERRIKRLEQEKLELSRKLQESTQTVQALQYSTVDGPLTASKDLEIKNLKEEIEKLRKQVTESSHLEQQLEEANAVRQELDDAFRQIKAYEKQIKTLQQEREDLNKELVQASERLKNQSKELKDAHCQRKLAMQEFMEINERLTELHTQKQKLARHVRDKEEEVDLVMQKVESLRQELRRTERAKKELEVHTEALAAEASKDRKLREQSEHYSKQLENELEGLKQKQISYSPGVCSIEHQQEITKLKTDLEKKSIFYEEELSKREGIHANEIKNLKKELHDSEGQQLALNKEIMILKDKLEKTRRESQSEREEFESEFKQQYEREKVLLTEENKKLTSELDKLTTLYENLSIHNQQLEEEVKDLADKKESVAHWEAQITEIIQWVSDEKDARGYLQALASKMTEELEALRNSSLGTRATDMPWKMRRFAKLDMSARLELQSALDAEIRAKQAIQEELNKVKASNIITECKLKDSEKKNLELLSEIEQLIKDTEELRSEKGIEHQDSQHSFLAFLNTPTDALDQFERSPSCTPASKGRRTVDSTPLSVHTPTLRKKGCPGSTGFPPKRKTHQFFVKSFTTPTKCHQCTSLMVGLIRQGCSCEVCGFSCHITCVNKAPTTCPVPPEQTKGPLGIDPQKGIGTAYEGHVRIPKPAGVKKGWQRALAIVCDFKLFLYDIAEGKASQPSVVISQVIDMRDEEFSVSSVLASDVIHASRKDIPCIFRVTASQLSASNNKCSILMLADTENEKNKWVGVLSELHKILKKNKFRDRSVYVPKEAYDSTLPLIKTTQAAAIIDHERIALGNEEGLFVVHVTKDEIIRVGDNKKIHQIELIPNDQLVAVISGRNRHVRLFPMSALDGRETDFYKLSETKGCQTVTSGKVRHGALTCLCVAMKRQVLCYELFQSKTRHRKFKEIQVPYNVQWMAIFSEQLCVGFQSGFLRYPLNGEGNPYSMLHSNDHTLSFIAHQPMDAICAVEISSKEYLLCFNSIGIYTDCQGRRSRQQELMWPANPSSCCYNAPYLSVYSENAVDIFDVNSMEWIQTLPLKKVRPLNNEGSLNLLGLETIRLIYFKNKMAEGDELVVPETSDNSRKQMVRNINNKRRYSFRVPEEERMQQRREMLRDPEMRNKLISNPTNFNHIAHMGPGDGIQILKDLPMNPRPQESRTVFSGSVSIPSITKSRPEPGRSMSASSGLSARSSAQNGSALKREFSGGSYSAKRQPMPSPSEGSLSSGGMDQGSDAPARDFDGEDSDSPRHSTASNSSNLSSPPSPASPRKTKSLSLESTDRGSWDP

pIC50 [1] | pIC50 [2] | Selectivity ratio [3] | pIC50 [4] | Structure (SMILES) | other results
5.10 | 5.92 |  |  | Cc1cc(-c2ccc3nc(C4COc5ccccc5C4)sc3c2)ccn1 (centres undefined) | 
6.47 | 7.96 | 30 | 5.81 | c1ccc2c(c1)CC(c1nc3ccc(-c4cn[nH]c4)cc3s1)CO2 (centres undefined) | 
5.57 | 7.14 |  |  | O=C(NCc1cccc(F)c1)c1nc2ccc(-c3cn[nH]c3)cc2s1 | 
< 4.70 | 7.23 |  |  | COc1cccc(CN(C)C(=O)c2nc3ccc(-c4cn[nH]c4)cc3s2)c1 | 
6.27 | 7.33 |  | < 5.57 | Fc1cc2nc(C3COc4ccccc4C3)sc2cc1-c1cn[nH]c1 (centres undefined) | 
5.96 | 7.38 | 25 |  | c1ccc2c(c1)CC(c1nc3ccc(-c4ccncc4)cc3s1)CO2 (centres undefined) | 
< 5.30 | 7.18 | > 75 | 6.44 | CN(C)CCOc1cc(-c2cn[nH]c2)cc2sc(C3COc4ccccc4C3)nc12 (centres undefined) | 
< 5.30 | 6.30 |  |  | c1ccc2c(c1)CC(c1nc3c(OCCC4CCOC4)cc(-c4cn[nH]c4)cc3s1)CO2 (centres undefined) | 
4.71 | 7.03 |  |  | COc1cccc(CN(C(=O)c2nc3ccc(-c4cn[nH]c4)cc3s2)C2CC2)c1 | 
5.28 | 7.74 | 300 | < 5.57 | COc1cccc(CNC(=O)c2nc3ccc(-c4cn[nH]c4)cc3s2)c1 | 
5.75 | 7.12 |  |  | Clc1ccc2c(c1)CC(c1nc3ccc(-c4cn[nH]c4)cc3s1)CO2 (centres undefined) | 
6.15 | 7.29 | 12 | 6.44 | CN(C)CCN(C)c1cc(-c2cn[nH]c2)cc2sc(C3COc4ccccc4C3)nc12 (centres undefined) | 
6.19 | 7.85 | 43 | < 5.57 | Fc1cc(-c2cn[nH]c2)cc2sc(C3COc4ccccc4C3)nc12 (centres undefined) | 
5.71 | 7.42 |  | 5.83 | Fc1ccc2c(c1)CC(c1nc3ccc(-c4cn[nH]c4)cc3s1)CO2 (centres undefined) | 
< 4.70 | 7.35 |  | < 5.57 | COc1ccc2c(c1)CC(c1nc3ccc(-c4cn[nH]c4)cc3s1)CO2 (centres undefined) | 
6.24 | 8.15 | 83 | 7.70 | CN(C)CCNC(=O)c1ccc2c(c1)CC(c1nc3ccc(-c4cn[nH]c4)cc3s1)CO2 (centres undefined) | half-life [7]: 35 min
< 5.30 | 6.50 |  |  | c1ccc2c(c1)CC(c1nc3c(OCCN4CCOCC4)cc(-c4cn[nH]c4)cc3s1)CO2 (centres undefined) | 
< 4.70 | 7.03 |  |  | Cc1ccc2c(c1)CC(c1nc3ccc(-c4cn[nH]c4)cc3s1)CO2 (centres undefined) | 
4.79 | 7.59 |  | 6.34 | CCN(Cc1cccc(OC)c1)C(=O)c1nc2ccc(-c3cn[nH]c3)cc2s1 | pIC50 [5]: < 4.70; pIC50 [6]: 5.10; pIC50 [8]: 6.74; pIC50 [9]: < 4.70
5.33 | 7.28 |  |  | O=C(NCc1ccccc1)c1nc2ccc(-c3cn[nH]c3)cc2s1 | 
6.39 | 7.60 |  |  | Cc1n[nH]cc1-c1ccc2nc(C3COc4ccccc4C3)sc2c1 (centres undefined) | 
6.81 | 8.05 | 17 | 5.82 | Nc1nccc(-c2ccc3nc(C4COc5ccccc5C4)sc3c2)n1 (centres undefined) | half-life [7]: 47 min; half-life [12]: 23 min
< 5.30 | 7.49 |  | 5.91 | COc1cc(-c2cn[nH]c2)cc2sc(C3COc4ccccc4C3)nc12 (centres undefined) | 
< 4.70 | 8.00 |  | 6.06 | COCCN(Cc1cccc(OC)c1)C(=O)c1nc2ccc(-c3cn[nH]c3)cc2s1 | 
< 5.30 | 7.23 |  | 5.83 | COC(=O)c1ccc2c(c1)CC(c1nc3ccc(-c4cn[nH]c4)cc3s1)CO2 (centres undefined) | 

Structure (SMILES) | pIC50 [1] | pIC50 [2] | Selectivity ratio [3] | pIC50 [4] | other results
CN(C)CCCNC(=O)c1ccc2c(c1)CC(c1nc3ccc(-c4cn[nH]c4)cc3s1)CO2 (centres undefined) | 6.12 | 9.05 | 847 | > 8.40 | pIC50 [5]: < 4.70; pIC50 [6]: 5.02; half-life [7]: 34 min; pIC50 [8]: 8.70; pIC50 [9]: 5.26
COc1cccc(CN(CCN(C)C)C(=O)c2nc3ccc(-c4cn[nH]c4)cc3s2)c1 | 7.35 | 9.40 | > 100 | > 8.22 | pIC50 [5]: < 4.70; pIC50 [6]: 6.61; half-life [7]: 15 min; bioavailability [10]: 0%; clearance [11]: 50 mL/min/kg; pIC50 [8]: 8.46; pIC50 [9]: 4.86

Reference: ChEMBL document CHEMBL1154368, “Benzothiazoles as Rho-associated kinase (ROCK-II) inhibitors” (Bioorg Med Chem Lett, 2009)
